# Experimental data: ChEMBL document CHEMBL3885861, “Open TG-GATES”
# Species on record: Rattus norvegicus
# Assay: Open TG-GATES - Regimen: Single
# Format: toxicity, organism-based, Sprague-Dawley
# Parameters: regimen Single, gender Male, age 6 weeks
# Settings: in vivo, po, 1000 mg/kg, route gavage, dose level High; for APTT / Bas / Eos / Fbg / Hb / Ht / Lym / MCH / MCHC / MCV / Mono / Neu / PT / Plat / RBC / Ret / WBC: tissue Blood; for KIDNEY_L / KIDNEY_R / KIDNEY_TOTAL: tissue Kidney; for LIVER: tissue Liver; for A/G / ALP / ALT / AST / BUN / CRE / Ca / Cl / DBIL / GLC / IP / K / LDH / Na / PL / RALB / TBIL / TC / TG / TP / gamma-GTP: tissue Plasma
smiles,measurement,setting,value
CNC(=C[N+](=O)[O-])NCCSCc1ccc(CN(C)C)o1 [RANITIDINE],TERMINAL_BW,3 h,218.6 g
same,APTT,3 h,21.3 s
same,Bas,3 h,0%
same,Eos,3 h,1%
same,Fbg,3 h,209 mg/dL
same,Hb,3 h,12.7 g/dL
same,Ht,3 h,36.7%
same,Lym,3 h,76.2%
same,MCH,3 h,21.7 pg
same,MCHC,3 h,34.7%
same,MCV,3 h,62.7 fL
same,Mono,3 h,2.4%
same,Neu,3 h,17.4%
same,PT,3 h,12.5 s
same,Plat,3 h,116.7 x10_4/uL
same,RBC,3 h,585.2 x10_4/ul
same,Ret,3 h,7.1%
same,WBC,3 h,84.3 x10_2/uL
same,KIDNEY_L,3 h,1 g
same,KIDNEY_R,3 h,1 g
same,KIDNEY_TOTAL,3 h,2.1 g
same,LIVER,3 h,10.5 g
same,A/G,3 h,1.7
same,ALP,3 h,944 IU/L
same,ALT,3 h,35.8 IU/L
same,AST,3 h,67.2 IU/L
same,BUN,3 h,9.4 mg/dL
same,CRE,3 h,0.4 mg/dL
same,Ca,3 h,10.5 mg/dL
same,Cl,3 h,104.4 meq/L
same,DBIL,3 h,0.064 mg/dL
same,GLC,3 h,181.2 mg/dL
same,IP,3 h,8.2 mg/dL
same,K,3 h,3.7 meq/L
same,LDH,3 h,148 IU/L
same,Na,3 h,141.4 meq/L
same,PL,3 h,133.6 mg/dL
same,RALB,3 h,3.3 g/dL
same,TBIL,3 h,0.1 mg/dL
same,TC,3 h,68 mg/dL
same,TG,3 h,44.8 mg/dL
same,TP,3 h,5.3 g/dL
same,gamma-GTP,3 h,1.2 IU/L
same,TERMINAL_BW,6 h,213.4 g
same,APTT,6 h,18.8 s
same,Bas,6 h,0%
same,Eos,6 h,1%
same,Fbg,6 h,232.8 mg/dL
same,Hb,6 h,13.4 g/dL
same,Ht,6 h,38%
same,Lym,6 h,72.8%
same,MCH,6 h,21.7 pg
same,MCHC,6 h,35.1%
same,MCV,6 h,62 fL
same,Mono,6 h,3%
same,Neu,6 h,18.4%
same,PT,6 h,12.7 s
same,Plat,6 h,106.2 x10_4/uL
same,RBC,6 h,613.8 x10_4/ul
same,Ret,6 h,7.1%
same,WBC,6 h,88.7 x10_2/uL
same,KIDNEY_L,6 h,0.9 g
same,KIDNEY_R,6 h,0.9 g
same,KIDNEY_TOTAL,6 h,1.9 g
same,LIVER,6 h,9.8 g
same,A/G,6 h,1.7
same,ALP,6 h,906.4 IU/L
same,ALT,6 h,37.2 IU/L
same,AST,6 h,63.8 IU/L
same,BUN,6 h,9.4 mg/dL
same,CRE,6 h,0.4 mg/dL
same,Ca,6 h,10.6 mg/dL
same,Cl,6 h,104 meq/L
same,DBIL,6 h,0.066 mg/dL
same,GLC,6 h,193.4 mg/dL
same,IP,6 h,8.3 mg/dL
same,K,6 h,3.6 meq/L
same,LDH,6 h,126.4 IU/L
same,Na,6 h,141 meq/L
same,PL,6 h,151.4 mg/dL
same,RALB,6 h,3.4 g/dL
same,TBIL,6 h,0.1 mg/dL
same,TC,6 h,80.8 mg/dL
same,TG,6 h,47.8 mg/dL
same,TP,6 h,5.4 g/dL
same,gamma-GTP,6 h,1.4 IU/L
same,TERMINAL_BW,9 h,210.2 g
same,APTT,9 h,20.1 s
same,Bas,9 h,0%
same,Eos,9 h,1%
same,Fbg,9 h,242.2 mg/dL
same,Hb,9 h,13.2 g/dL
same,Ht,9 h,38%
same,Lym,9 h,68.6%
same,MCH,9 h,21.8 pg
same,MCHC,9 h,34.8%
same,MCV,9 h,62.5 fL
same,Mono,9 h,2.4%
same,Neu,9 h,24.2%
same,PT,9 h,12.6 s
same,Plat,9 h,111.9 x10_4/uL
same,RBC,9 h,607.2 x10_4/ul
same,Ret,9 h,7.3%
same,WBC,9 h,74.1 x10_2/uL
same,KIDNEY_L,9 h,1 g
same,KIDNEY_R,9 h,1 g
same,KIDNEY_TOTAL,9 h,1.9 g
same,LIVER,9 h,9.2 g
same,A/G,9 h,1.6
same,ALP,9 h,955.2 IU/L
same,ALT,9 h,36 IU/L
same,AST,9 h,65.8 IU/L
same,BUN,9 h,8.8 mg/dL
same,CRE,9 h,0.3 mg/dL
same,Ca,9 h,10.6 mg/dL
same,Cl,9 h,103.8 meq/L
same,DBIL,9 h,0.066 mg/dL
same,GLC,9 h,197 mg/dL
same,IP,9 h,8.6 mg/dL
same,K,9 h,3.6 meq/L
same,LDH,9 h,126 IU/L
same,Na,9 h,140.8 meq/L
same,PL,9 h,152 mg/dL
same,RALB,9 h,3.4 g/dL
same,TBIL,9 h,0.1 mg/dL
same,TC,9 h,84.6 mg/dL
same,TG,9 h,30.2 mg/dL
same,TP,9 h,5.5 g/dL
same,gamma-GTP,9 h,1.2 IU/L
same,TERMINAL_BW,24 h,228.9 g
same,APTT,24 h,20.1 s
same,Bas,24 h,0.2%
same,Eos,24 h,1%
same,Fbg,24 h,235 mg/dL
same,Hb,24 h,13.9 g/dL
same,Ht,24 h,39.1%
same,Lym,24 h,79%
same,MCH,24 h,22.4 pg
same,MCHC,24 h,35.5%
same,MCV,24 h,63 fL
same,Mono,24 h,3.2%
same,Neu,24 h,15%
same,PT,24 h,11.7 s
same,Plat,24 h,122.4 x10_4/uL
same,RBC,24 h,621.4 x10_4/ul
same,Ret,24 h,5.9%
same,WBC,24 h,75.4 x10_2/uL
same,KIDNEY_L,24 h,1 g
same,KIDNEY_R,24 h,1 g
same,KIDNEY_TOTAL,24 h,2 g
same,LIVER,24 h,10.7 g
same,A/G,24 h,1.6
same,ALP,24 h,881.6 IU/L
same,ALT,24 h,33.2 IU/L
same,AST,24 h,60.4 IU/L
same,BUN,24 h,15.4 mg/dL
same,CRE,24 h,0.4 mg/dL
same,Ca,24 h,10.8 mg/dL
same,Cl,24 h,101.6 meq/L
same,DBIL,24 h,0.078 mg/dL
same,GLC,24 h,204.2 mg/dL
same,IP,24 h,7.9 mg/dL
same,K,24 h,3.7 meq/L
same,LDH,24 h,127.8 IU/L
same,Na,24 h,140.4 meq/L
same,PL,24 h,155.6 mg/dL
same,RALB,24 h,3.4 g/dL
same,TBIL,24 h,0.1 mg/dL
same,TC,24 h,84.4 mg/dL
same,TG,24 h,67.8 mg/dL
same,TP,24 h,5.6 g/dL
same,gamma-GTP,24 h,0.8 IU/L
